Earlier results in patent US7666823B2, “Lens care solutions” (Novartis AG, priority 2005, dated 2010).

Settings: dissociation constant of the dibasic compound, aqueous

For OCC(CO)(CO)NCCCNC(CO)(CO)CO [bis-TRIS-propane, 1,3-bis(tris[hydroxymethyl]methylamino)propane], the pKa1 is given as 6.8 and the pKa2 is given as 9.5.
